Results taken from paper PMC4399838, “Antipsychotic-Like Effect of the Muscarinic Acetylcholine Receptor Agonist BuTAC in Non-Human Primates” (PLoS ONE, 2015).
“Also recorded” adds a separate entry of the source.

How the values were obtained:
[1] = system: antipsychotic-naïve Cebus Apella monkeys; experiment: Side effects of BuTAC alone or with d-amphetamine; type: in vivo
Description: (§1) Seven male Cebus Apella monkeys were used for evaluation the anti-amphetamine effect and the side effect profile of BuTAC. These monkeys were never before administered antipsychotics and had never experienced EPS, but had previously been administered amphetamine. For further evaluation of the EPS potential of BuTAC, the compound was tested in four male and female monkeys, all sensitized to drug-induced EPS by earlier chronic treatment with classical antipsychotic drugs.
All monkeys received all treatments with at least one week between tests and thus served as their own control. To avoid extended physical contact with the experimenter, the cages were reduced in sized by moving the back wall of the cage closer to the front wall to lightly immobilize the monkey while injecting the test substance in the thigh. This was done at 9 am at test days. After the appropriate pre-treatment time, the monkeys were videotaped in their cages at predefined time points after drug injection.
(§2) The rated primate behaviours and symptoms were the following: unrest, stereotypy, arousal, sedation and bradykinesia (Table 1). All monkeys were videotaped in 90-sec. sessions at specific time points throughout the test sessions. The videotapes were rated for amphetamine-induced behaviours and EPS by two experienced raters blinded to the treatment of the animal by means of a rating scale adapted from Peacock et al. and previously described by Andersen et al. (Table 1). In case of any discrepancy between the two ratings, the recording in question was re-evaluated and a rating agreed upon. The monkeys were videotaped at t = 30, 60, 90, 135, 150, 165, 180, 240, 300 min after BuTAC (or vehicle) administration. For the combination studies, d-amphetamine was injected at t = 120 min. Oral dyskinesia was measured in counts per 90 sec. The severity of other behaviours and symptoms were rated on a scale ranging from 0 (not present) to 6 (extreme presence).
(§3) For evaluation of anti-amphetamine effects, BuTAC was tested in doses of 0.001, 0.003, 0.01 mg/kg in combination with 0.5 mg/kg of d-amphetamine. BuTAC or peanut oil vehicle was injected s.c. at approximately 9 a.m. Pre-treatment time before s.c. injection of amphetamine was 120 min. For evaluation of side effects, BuTAC was tested alone at doses of 0.001, 0.003 and 0.01 mg/kg in antipsychotic-naïve monkeys and at doses of 0.003 and 0.01 mg/kg in monkeys sensitized to extrapyramidal side effects (EPS) by earlier long-term treatment with first generation antipsychotics. […] None of the animals were sacrificed.
Data from the experiments where BuTAC was administered alone collected at t = 60, 180, 300 min are presented. For the d-amphetamine / BuTAC study, data collected at t(amp) = 60, 120 and 180 min (t = 180, 240, 300 min) are reported. Data were analyzed for overall treatment effects at each time point by means of the non-parametric Friedman’s test for repeated measures. The Student Newman-Keuls comparison procedure was used to analyze for specific dose effects. For all tests, the accepted level of significance was p<0.05.

EPS sensitized monkeys = experiment: Side effects (EPS) of BuTAC in EPS-sensitized monkeys; type: in vivo, Cebus Apella
Description: as §1
The EPS sensitized monkeys were originally caught in the wild and had been at the laboratory for 13–20 years at the time of testing. The EPS naïve monkeys were born in captivity and had been at the laboratory for 7 years at the time of testing. They were between 11 and 18 years old, when the studies were initiated. The monkeys weighed between 2.5 kg (smallest female) and 5 kg (largest male). Their weight was monitored weekly and they were regularly checked by a veterinarian.
as §2, §3

[2] = molecular target: T1, human M4 muscarinic receptor (Homo sapiens, UniProt P08173); design: method as in Watt et al. 2013 [10]; conditions: ref Watt et al. 2013 [10], cited from earlier work
T1 construct: purchased PerkinElmer Life and Analytical Sciences, Boston, MA
T1 sequence (P08173 1-479): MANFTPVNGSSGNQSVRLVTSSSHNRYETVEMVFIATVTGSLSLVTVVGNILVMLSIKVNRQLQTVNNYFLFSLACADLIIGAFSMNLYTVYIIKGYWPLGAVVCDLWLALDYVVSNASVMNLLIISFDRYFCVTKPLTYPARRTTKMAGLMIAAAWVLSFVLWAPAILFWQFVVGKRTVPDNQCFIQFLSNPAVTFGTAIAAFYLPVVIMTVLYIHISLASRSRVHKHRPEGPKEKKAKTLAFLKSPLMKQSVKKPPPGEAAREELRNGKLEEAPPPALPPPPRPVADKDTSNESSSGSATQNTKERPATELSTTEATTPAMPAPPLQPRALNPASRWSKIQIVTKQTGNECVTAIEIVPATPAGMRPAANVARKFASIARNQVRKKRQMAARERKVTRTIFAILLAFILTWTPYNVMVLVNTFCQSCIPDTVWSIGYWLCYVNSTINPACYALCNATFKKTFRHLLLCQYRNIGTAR

M5AChR = molecular target: T2, M5AChR (Homo sapiens, UniProt P08912); experiment: Competitive radioligand binding
T2 sequence (P08912 1-532): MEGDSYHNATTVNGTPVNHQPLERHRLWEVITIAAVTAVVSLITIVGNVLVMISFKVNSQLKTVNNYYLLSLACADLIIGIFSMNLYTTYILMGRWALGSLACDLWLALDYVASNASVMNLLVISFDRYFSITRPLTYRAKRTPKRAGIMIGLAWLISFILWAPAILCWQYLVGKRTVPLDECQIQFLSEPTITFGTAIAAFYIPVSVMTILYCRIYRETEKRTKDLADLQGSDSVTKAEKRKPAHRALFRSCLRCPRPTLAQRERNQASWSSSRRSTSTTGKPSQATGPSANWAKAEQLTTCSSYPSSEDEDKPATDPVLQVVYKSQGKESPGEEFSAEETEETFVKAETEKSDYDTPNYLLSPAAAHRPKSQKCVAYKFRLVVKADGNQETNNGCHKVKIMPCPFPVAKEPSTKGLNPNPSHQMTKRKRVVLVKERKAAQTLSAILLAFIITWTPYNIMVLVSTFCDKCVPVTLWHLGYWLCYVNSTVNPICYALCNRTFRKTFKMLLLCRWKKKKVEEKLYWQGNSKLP

[3] = BuTAC 0.001 mg/kg / d-amphetamine 0.5 mg/kg
[4] = BuTAC alone 0.001, 0.003, 0.01 mg/kg
[5] = BuTAC 0.01 mg/kg, four EPS sensitized monkeys

CCCCSc1nsnc1[C@H]1CN2CCC[C@H]1C2 [BuTAC, (5R,6R)-6-(3-butylthio-1,2,5-thiadiazol-4-yl)-1-azabicyclo[3.2.1]octane]
Emetic events (vomiting) (monkeys affected) [1, 3]: 0 | Sedation 2 ≤ X ≤ 5 (monkeys affected) [1, 3]: 0 | Salivation (monkeys affected) ([1]; BuTAC 0.001 mg/kg / vehicle): 0 | Sedation 2 ≤ X ≤ 5 (monkeys affected) ([1]; BuTAC 0.001 mg/kg / vehicle): 0 | Sedation 2 ≤ X ≤ 5 (monkeys affected) ([1]; BuTAC 0.003 mg/kg / d-amphetamine 0.5 mg/kg): 0 | Salivation (monkeys affected) ([1]; BuTAC 0.003 mg/kg / vehicle): 0 | Muscular relaxation (monkeys affected) ([1]; BuTAC 0.01 mg/kg (footnote of Table 3)): all monkeys | Sedation 2 ≤ X ≤ 5 (monkeys affected) ([1]; BuTAC 0.01 mg/kg / d-amphetamine 0.5 mg/kg): 0 | Muscular relaxation (monkeys affected) ([1]; BuTAC 0.001 and 0.003 mg/kg (footnote of Table 3)): one | Muscular relaxation (monkeys affected) ([1]; BuTAC 0.003 and 0.01 mg/kg combined with d-amphetamine): Six | Unrest (rating 0–6) ([1]; BuTAC alone 0.01 mg/kg, after 180 and 300 min, p<0.05): decrease in unrest | Sedation (rating 0–6) ([1]; BuTAC alone 0.01 mg/kg, all three test times, p<0.05 relative to vehicle): produced sedation | Arousal [1, 4]: no significant effect | Stereotypies, oral dyskinesia, bradykinesia or dystonia [1, 4]: not observed | Sedation, oral dyskinesia, bradykinesia or dystonia ([1]; BuTAC and d-amphetamine): not observed | EPS ([1]; EPS naive monkeys): did not induce EPS | EPS (EPS sensitized monkeys; BuTAC 0.003 mg/kg): no EPS | Mild bradykinesia (monkeys affected) (EPS sensitized monkeys; [5]): Two | Oral dyskinesia and dystonia (EPS sensitized monkeys; [5]): not observed; also recorded: no signs | Sedation (monkeys affected) (EPS sensitized monkeys; [5]): all four | EPS (EPS sensitized monkeys; lower doses, 0.001- or 0.003 mg/kg of BuTAC (discussion)): no signs of EPS | Rel pEC50 ([2]; agonist mode, negative log-transformed): 10.27 ± 10.31 M | % Emax ([2]; agonist mode): 35.53 ± 11.51% | Rel pIC50 ([2]; antagonist mode, negative log-transformed): 9.19 ± 9.13 M | % Inhibition ([2]; antagonist mode): 57.55 ± 3.22%

CCCSc1nsnc1[C@H]1CN2CCC[C@H]1C2 [PTAC, (5R,6R) 6-(3-propylthio-1,2,5-thiadiazol-4-yl)-1-azabicyclo-[3.2.1]-octane]
Ki (M5AChR): 0.372 nM
